Each structure is given as a SMILES string. Read-outs that look alike come from different tables or passages of the source.

In patent publication US20070088023A1, “Method of administration for 5-(2-chlorophenyl)-1,2-dihydro-7-fluoro-8-methoxy-3-methyl-oyrazolo[1,4]benzodiazepine” (priority 2005, published 2007) one finds MTD data, which are given here for one compound.

The nature of this data set: pre-clinical good laboratory practices toxicology, maximum tolerated dose. The arrangement: species or system rats. Conditions: rat, in vivo. The procedure: The starting dose is based on pre-clinical good laboratory practices toxicological results, according to the accepted standards. […] Thus, the maximum tolerated dose equivalent for this trial will be 1/10th of the HED or 1.8 rounded down to 1.5 mg/m^2/day with dose escalation in 1.5 mg/m^2 increments to 30 mg/m^2 or until dose limiting toxicity(s)(DLT) occur.

On to `COc1cc2c(cc1F)C(c1ccccc1Cl)=Nc1c(n[nH]c1C)N2` [compound of Formula I, 5-(2-chlorophenyl)-1,2-dihydro-7-fluoro-8-methoxy-3-methyl-pyrazolo[3,4-b][1,4]benzodiazepine], for which the MTD worked out at 18 mg/kg/day (rat MTD 3 mg/kg/day times 6, read-out: HED (human equivalent dose) of the rat maximum tolerated dose) and 3 mg/kg/day (rats, pre-clinical GLP toxicology, read-out: maximum tolerated dose in rats).
